Among the test systems are NCI-H226 lung; HCT-15 colon; HCC-2998 colon; HCT-116 colon; T-47D breast; NCI-H23 lung; HL-60(TB) leukemia; KM12 colon; MOLT-4 leukemia; UACC-62 melanoma.
Common to all, as to test: DTP human tumour cell line panel, 48 h

“And” between values parts separate entries of the source, which are not always exact repeats. Equal values may be shown once.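 Growth conditions: 96-well plates. Treatment: test compound, 48 hours, 5 concentrations. Analysis: linear interpolation between bracketing concentrations; unreached endpoints set to highest concentration. Here, GI50 denotes the concentration required for 50% inhibition of growth. The concentration for full growth arrest is given as TGI.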 A value given as a limit tells only on which side of the number the result lay.

Results on 14 molecules are retold here after PubChem BioAssay (NCI).

As usually defined, the TGI is the concentration giving total growth inhibition. High values mean lower sensitivity of the cells, low ones greater sensitivity of the cells. Turning to `OC(c1ccccc1)C(F)(F)c1nc2ccccc2o1` (configuration not stated), the TGI in the test on NCI-H226 lung, in the test on HCT-15 colon, in the test on HCC-2998 colon, in the test with HCT-116 colon, with T-47D breast and with NCI-H23 lung was over 100 µM throughout. Besides, the TGI in the test with HL-60(TB) leukemia, with KM12 colon, in the test on MOLT-4 leukemia and with UACC-62 melanoma was over 100 µM each time.
`CC1OC(O[C@H]2CC[C@]3(C=O)[C@H]4CC[C@]5(C)[C@H](C6=CC(=O)OC6)CC[C@]5(O)[C@@H]4C=C[C@]3(O)C2)CC(O)C1O` (some centres not stated): the TGI in the test on NCI-H226 lung came to 1.33 µM; in the test on HCT-15 colon it was 0.62 µM; in the test on HCC-2998 colon, 2.92 µM; with HCT-116 colon it was 0.349 µM; in the test with T-47D breast it was 1.27 µM; with NCI-H23 lung, 0.494 µM. Moreover, the TGI in the test with HL-60(TB) leukemia stood at 0.689 µM; in the test on KM12 colon, 2.76 µM; in the test on MOLT-4 leukemia, 0.3 µM; in the test on UACC-62 melanoma it was 0.807 µM.
On to `O=C1NC(S(=O)(=O)O)=NNC12c1ccccc1-c1ccccc12`, for which the TGI in the test on NCI-H226 lung, with HCT-15 colon, in the test on HCC-2998 colon, with HCT-116 colon, with T-47D breast and in the test with NCI-H23 lung was over 10 µM in each case. Moreover, the total growth inhibition concentration (TGI) in the test with HL-60(TB) leukemia, in the test on KM12 colon, in the test with MOLT-4 leukemia and with UACC-62 melanoma was over 10 µM in each case.
For the molecule `Nc1c(N2CCCCC2)c(=O)nc2[nH]/c(=C\c3ccccc3)c(=O)n12`, the TGI in the test on NCI-H226 lung, with HCT-15 colon, in the test on HCC-2998 colon, in the test with HCT-116 colon, with T-47D breast and in the test with NCI-H23 lung was over 100 µM throughout. Moreover, the TGI in the test on HL-60(TB) leukemia, in the test on KM12 colon and in the test on MOLT-4 leukemia was over 100 µM in each case.
Turning to `O=[N+]([O-])c1cccc2nc3ccccc3c(NCCCN3CCCCC3)c12`, the concentration for total growth inhibition (TGI) was 0.0553 µM in the test on NCI-H226 lung; 0.109 µM in the test with HCT-15 colon; 0.0629 µM in the test on HCT-116 colon; 0.182 µM with T-47D breast; 0.0231 µM with NCI-H23 lung; 0.511 µM in the test on HL-60(TB) leukemia. In addition, the TGI with KM12 colon amounted to 0.112 µM; with MOLT-4 leukemia it was 0.0681 µM; in the test with UACC-62 melanoma, 0.0298 µM.
Consider `CCC(=O)NCCc1c2c3c(ccnc3c3ncsc13)-c1ccccc1N2`, for which the total growth inhibition concentration (TGI) with NCI-H226 lung was 16.7 µM; in the test on HCT-15 colon, over 100 µM; in the test with HCT-116 colon, 51.2 µM; in the test on T-47D breast it was over 100 µM; with NCI-H23 lung it was over 100 µM; with HL-60(TB) leukemia, over 13.4 µM. Moreover, the TGI was over 100 µM with KM12 colon, over 64.5 µM in the test on MOLT-4 leukemia and over 67.1 µM in the test with UACC-62 melanoma.
On to `CC(Oc1ccccc1Cl)C(=O)NN1C(=O)CSC1c1ccc(Cl)cc1` (configuration not stated), for which the TGI in the test on NCI-H226 lung amounted to 35.3 µM; with HCT-15 colon, 43.8 µM; in the test on HCC-2998 colon, 34.2 µM; in the test with HCT-116 colon, 29.3 µM; in the test on T-47D breast, 52.1 µM; in the test on NCI-H23 lung it was 39.2 µM. For the same molecule, the TGI in the test on HL-60(TB) leukemia was found to be 23.5 µM; with KM12 colon it was 36.1 µM; with UACC-62 melanoma, 34 µM.
For orientation: GI50 means the concentration that inhibits growth by half. For `N#Cc1c(-c2ccccc2)c(C#N)c(=O)n(C2OC(CO)C(O)C(O)C2O)c1S` (configuration not stated), the TGI in the test on NCI-H226 lung, with HCT-15 colon, in the test with HCC-2998 colon, with T-47D breast, in the test on NCI-H23 lung and in the test on HL-60(TB) leukemia was over 100 µM each time. Also, the TGI with KM12 colon, in the test on MOLT-4 leukemia and in the test with UACC-62 melanoma was over 100 µM throughout. The GI50 with HCC-2998 colon is > 100 µM and 40.4 µM.
For the molecule `NC(N)=NC(N)=Nc1ccccc1` (tested in a mixture with another compound), the TGI in the test on NCI-H226 lung was over 100 µM; in the test with HCT-15 colon, over 100 µM; in the test on HCC-2998 colon, over 100 µM; with HCT-116 colon, over 100 µM; in the test on T-47D breast, 81.4 µM; with NCI-H23 lung, over 100 µM. The total growth inhibition concentration (TGI) with HL-60(TB) leukemia, in the test on KM12 colon and with UACC-62 melanoma was over 100 µM each time.
As to `O=C(O)Cn1c2c(c3c(O)cccc31)C(=O)c1ccccc1-2`, the GI50 was over 100 µM in the test on NCI-H226 lung; over 100 µM with HCT-15 colon; over 100 µM in the test on HCC-2998 colon; 93.6 µM in the test on HCT-116 colon; over 100 µM in the test with T-47D breast; over 100 µM in the test with NCI-H23 lung. In addition, the GI50 with HL-60(TB) leukemia, with KM12 colon and with MOLT-4 leukemia was over 100 µM in each case. In addition, the TGI with NCI-H226 lung, with HCT-15 colon, in the test with HCC-2998 colon, in the test on HCT-116 colon, in the test with T-47D breast and in the test on NCI-H23 lung was over 100 µM each time. For the same molecule, the total growth inhibition concentration (TGI) in the test with HL-60(TB) leukemia, with KM12 colon and in the test on MOLT-4 leukemia was over 100 µM each time.
Regarding `CC(C)(C)NC(=O)C12C3C4C1C1C2C3C41C(=O)NC(C)(C)C` (configuration not stated), the TGI in the test with HCT-15 colon, in the test with HCC-2998 colon, in the test with HCT-116 colon, in the test on T-47D breast, in the test on NCI-H23 lung and with HL-60(TB) leukemia was over 100 µM in each case. The TGI in the test on KM12 colon, in the test with MOLT-4 leukemia and with UACC-62 melanoma was over 100 µM throughout.
`CCOC(=O)NC(=S)c1ccc(O)c2ccccc12`: the TGI in the test on HCT-15 colon is over 100 µM; in the test with HCC-2998 colon, over 100 µM; with HCT-116 colon it was over 100 µM; with T-47D breast, over 100 µM; in the test on NCI-H23 lung it was over 100 µM; in the test with HL-60(TB) leukemia, 39.9 µM. The total growth inhibition concentration (TGI) in the test with KM12 colon, in the test with MOLT-4 leukemia and in the test with UACC-62 melanoma was over 100 µM throughout.
As to `COC(=O)c1c2c(cc3c1CC1(Cc4cc5c(cc4C1)CCC5)C3)CCC2`, the TGI in the test with HCT-15 colon, with HCC-2998 colon, in the test with HCT-116 colon, in the test on T-47D breast, in the test with NCI-H23 lung and in the test on HL-60(TB) leukemia was over 100 µM in each case. In the test on MOLT-4 leukemia, this molecule displayed a TGI of over 100 µM.
As for `CN(C)c1ccc(C(=NN)c2ccc(N(C)C)cc2)cc1`, the TGI with NCI-H226 lung was over 62.4 µM; in the test on HCT-15 colon it was over 40.9 µM; with HCC-2998 colon, 3.73 µM; in the test on HCT-116 colon, over 100 µM; with T-47D breast, over 100 µM; in the test on NCI-H23 lung, over 37.7 µM. Moreover, the results for the TGI in the test with HL-60(TB) leukemia, with KM12 colon and in the test with UACC-62 melanoma were 3.35 µM, over 100 µM and over 100 µM, respectively.
